Data on eight molecules can be found in US20040259764A1, “Reticulocyte depletion signatures” (priority 2002, published 2004).

Read-outs that look alike come from different tables or passages of the source. Marks after values point to notes of the source that are not given here.

For series [1], the system named is Reticulocyte Depletion Signature (Alas2 and peripherin probes), liver. The source says:
(§1) Compound dosing was based on the acute dose LD50s recorded in published reference or literature sources. […] The MTD (maximum tolerated dose) was then selected as the dose at which the animals […] 5-10% body weight during the 5-day range finding study. […] In addition, the clinical observations must show no or mild clinical signs during the whole of the range-finding study. At the next highest dose, signs and symptoms of adverse effects and exceeding those of the MTD should be seen to occur. Should these criteria not be met, the range-finding study is repeated using a modified dose range.
(§2) After determination of the MTD and FED for a compound, each compound was dissolved in a vehicle for administration on day 1 of the study (additional daily doses were stored as frozen aliquots from this initial formulation). Each compound was administered to three individual male Sprague-Dawley rats for each of the two doses (MTD and FED) for one of four different times (0.25 day, 1 day, 3 days, and 5 days), yielding a total of up to 24 animals per compound study. Vehicle choice was based on solubility of the compound, effect of food on adsorption, and the vehicles used in the literature reports examined during the FED selection investigations, described above. Generally, the route and vehicle in which the FED was defined are used. When there was a choice of routes and vehicles, oral routes were chosen over injection routes. Many compounds, especially oncolytics, are only administerable intravenously. In such cases, the compound was administered as an intravenous formulation into the tail vein. Orally administered compounds were given dissolved in either water, 1% carboxymethycellulose (CMC) or corn oil. Intravenously and intraperitoneally administered compounds were given in 0.9% saline. Subcutaneously administered compounds were given in corn oil. Animal body weights were determined at 1 day and, where appropriate, at 4 days, before necropsy, and clinical observations were made on a daily basis. Control animals were dosed with vehicle only. Three male animals were used for each dose and time combination used for the compound treatment.
(§3) Tissue harvest and handling: After the allocated treatment time, the tissues from the animals were harvested. […] All the tissues collected were divided to provide samples for histopathological analyses, and the remainder of each tissue was then snap-frozen.
(§4) Preparation of enriched mRNA: Punch biopsies were taken from the frozen tissues and were completely homogenized before being processed using the MagNA Pure robot. (Roche Diagnostics Corp., Indianapolis, Ind.) in combination with the MagNA Pure LC RNA Isolation kit II (Roche Diagnostics Corp). The amount of lysis buffer was adjusted to allow 1 ml per 50 mg for liver tissue, or 1 ml per 80 mg for all other tissues. After complete homogenization and before loading of the samples into the 32-well MagNA Pure plate, the samples were syringed 5-6 times using a 20-gauge 3-ml syringe to ensure a smooth solution for robotic processing. Tissue sample processing was performed in duplicate wells (loading 150 μl of homogenized sample and 150 μl of additional lysis buffere to each well) of the MagNA Pure LC, which is programmed to extract mRNA using oligo-dT selection technology into a final elution volume of 100 μl. Poly A(+) RNA sample concentration was performed using a standard ethanol precipitation protocol in the presence of glycogen (50 μg/ml). After precipitation the final purified mRNA sample was resuspended in 7 μl DEPC-treated water and quantified using a Ribogreen high-range assay (Molecular Probes) on the Victor-Wallace II Fluorometer (Perkin-Elmer).

For series [2], the system named is Reticulocyte Depletion Signature (Alas2 and peripherin probes), spleen.
Description: as §1, §2, §3, §4

Series [3] concerns Reticulocyte Depletion Signature (Alas2 and peripherin probes), bone marrow.
Description: as §1, §2, §3, §4

Series [4] relates to two specific reticulocyte-enriched transcripts. The protocol:
as §2, §3
as §4, with “(Perkin-Elmer). Additionally, the integrity of each mRNA sample was determined using the Agilent 2100 BioAnalyzer (Agilent Technologies, Palo Alto, Calif.) in combination with the RNA 6000 Nano Lab Chip kit (Agilent Technologies).” for “(Perkin-Elmer).”
0.6-20 μg of enriched mRNA from different tissue sources was processed into cRNA in the presence of different bacterial control mRNAs (1.5pg FixA, 5pgYjek, 5pg AraB, 15pg EntF, 50pg FixB, 150pg HisB, 500pg LeuB, 1500pg Gnd) and with the modification of the addition of 1.0 μl of 100 pmol/μl HPLC-purified T7-(dT)24 oligonucleotide primer instead of a 0.5 pmol/μl unpurified T7-(dT)24 primer.
The slides were rinsed in distilled, deionized water (dd-H2O) with 0.05% Tween-20® twice for 5 seconds each before they were dried by centrifugation and stored in light protective slide boxes.

Setting [5] is: liver data, highest training treatment normalised to 100, * = p < 0.01.
Setting [6] is: spleen data, signature derived from liver, * = p < 0.01.
Where [7] appears, read: bone marrow data, signature derived from liver, * = p < 0.01.
Setting [8] is: rat liver, dose, route and vehicle per compound as.

In the case of `COc1cccc2c1C(=O)c1c(O)c3c(c(O)c1C2=O)C[C@@](O)(C(=O)CO)C[C@@H]3O[C@H]1C[C@H](N)[C@H](O)[C@H](C)O1` [DOXORUBICIN, (8S-cis)-10-((3-amino-2,3,6-trideoxy-γ-L-lyxo-hexopyranosyl)oxy)-7,8,9,10-tetrahydro-6,8,11-trihydroxy-8-(hydroxyacetyl)-1-methoxy-5,12-naphthacene-dione], the “Signature Projection Score (SPS)” value in series [1] (rat, in vivo) is 95*. The “SPS (Spleen)” value in series [2] (rat, in vivo) is 138*. Further, the “SPS (Bone Marrow)” value in series [3] (rat, in vivo) stood at 0. For the same molecule, in series [4] (rat, in vivo), the “signal intensity for two specific reticulocyte-enriched transcripts as compared with vehicle-treated control animals” value was “significantly decreased”.

Regarding `Nc1nc2nc[nH]c2c(=S)[nH]1` [THIOGUANINE, 2-amino-1,7-dihydro-6H-purine-6-thione], the “Signature Projection Score (SPS)” value in series [1] (rat, in vivo) is recorded as 99*. Also, in series [2] (rat, in vivo), the “SPS (Spleen)” value is 121*. In addition, the “SPS (Bone Marrow)” value in series [3] (rat, in vivo) was determined as 40. In addition, in series [4] (rat, in vivo), the “signal intensity for two specific reticulocyte-enriched transcripts as compared with vehicle-treated control animals” value was “significantly decreased”.

Take `Nc1ccn([C@@H]2O[C@H](CO)[C@@H](O)[C@@H]2O)c(=O)n1` [CYTARABINE, 4-amino-1-β-D-arabinofuranosyl-2(1H)-pyrimidinone]: the “Signature Projection Score (SPS)” value in series [1] (rat, in vivo) is listed as 58*. The “SPS (Spleen)” value in series [2] (rat, in vivo) turned out to be 17. In addition, the “SPS (Bone Marrow)” value in series [3] (rat, in vivo) turned out to be 0. Further, the “signal intensity for two specific reticulocyte-enriched transcripts as compared with vehicle-treated control animals” value in series [4] (rat, in vivo) was “significantly decreased”.

With `NC(=O)NO` [HYDROXYUREA, Hydroxyurea], the “Signature Projection Score (SPS)” value in series [1] (setting [5]) is given as 71*. The “SPS (Spleen)” value in series [2] (setting [6]) was 130*. Besides, the “SPS (Bone Marrow)” value in series [3] (setting [7]) turned out to be 0. Further, in series [4] (setting [8]), the “signal intensity for two specific reticulocyte-enriched transcripts as compared with vehicle-treated control animals” value is recorded as “significantly decreased”.

Regarding `Cn1cnc([N+](=O)[O-])c1Sc1ncnc2nc[nH]c12` [AZATHIOPRINE, 6-((1-methyl-4-nitro-1H-imidazol-5-yl)thio)-1H-purine], the “Signature Projection Score (SPS)” value in series [1] (rat, in vivo) was 90*. For the same molecule, the “SPS (Spleen)” value in series [2] (rat, in vivo) is given as 122*. Also, the “SPS (Bone Marrow)” value in series [3] (rat, in vivo) amounted to 27. Besides, the “signal intensity for two specific reticulocyte-enriched transcripts as compared with vehicle-treated control animals” value in series [4] (rat, in vivo) is “significantly decreased”.

In the case of `O=P1(NCCCl)OCCCN1CCCl` (centres unmarked) [IFOSFAMIDE, N,3-bis(2-chloroethyl)tetrahydro-2H-1,3,2-oxazaphosphorin-2-amine 2-oxide], the “Signature Projection Score (SPS)” value in series [1] (setting [5]) is 95*. For the same molecule, the “SPS (Spleen)” value in series [2] (setting [6]) is listed as 24. Further, in series [3] (setting [7]), the “SPS (Bone Marrow)” value was 27. For the same molecule, the “signal intensity for two specific reticulocyte-enriched transcripts as compared with vehicle-treated control animals” value in series [4] (setting [8]) was “significantly decreased”.

Regarding `COc1cc([C@@H]2c3cc4c(cc3[C@@H](O[C@@H]3O[C@@H]5CO[C@@H](C)O[C@H]5[C@H](O)[C@H]3O)[C@H]3COC(=O)[C@H]23)OCO4)cc(OC)c1O` [ETOPOSIDE, 9-((4,6-0-ethylidene-β-D-glucopyranosyl)oxy)-5,8,8a,9-tetrahydro-5-(4-hydroxy-3,5,-dimethoxyphenyl)furo[3′,4′:6,7]naphtha[2,3-d]-1,3-dioxol-6(5acH)-one], in series [1] (rat, in vivo), the “Signature Projection Score (SPS)” value is 100*. Besides, the “SPS (Spleen)” value in series [2] (rat, in vivo) is on record as 146*. Further, the “SPS (Bone Marrow)” value in series [3] (rat, in vivo) is 151*. Further, in series [4] (rat, in vivo), the “signal intensity for two specific reticulocyte-enriched transcripts as compared with vehicle-treated control animals” value was “significantly decreased”.

`CCCSc1ccc2nc(NC(=O)OC)[nH]c2c1` [albendazole, (5-(propylthio)-1H-benzimidazol-2yl)-carbamic acid methyl ester]: the “signal intensity for two specific reticulocyte-enriched transcripts as compared with vehicle-treated control animals” value in series [4] (setting [8]) is given as “significantly decreased”.
